Source: patent US20230405003A1, “APPLICATION OF THYMIDINE DERIVATIVE IN PREPARATION OF DRUGS” (ONQUALITY PHARMACEUTICALS CHINA LTD., priority 2020, published 2023)

System: HaCaT cells
Experiment: Relief of 5-FU proliferative toxicity to HaCaT cells (CCK-8 cell survival)
Type: cell-based
Details: for activation at 1 µM: compound 1 μM; for activation at 10 µM: compound 10 μM; for activation at 100 µM: compound 100 μM; for Cell Survival Rate (increased percentage of cell survival compared with the Group of 5-FU): 5-Fu 20 μM, HaCaT cells
Method: The cultured skin cell HaCaTs were digested, counted, and inoculated into a 96-well plate with 5000-10000 cells in each well. After 24 h of culture, the wells were divided into Group of blank solvent control, Group of 5-FU, Group of 5-FU+thymidine derivative, Group of 5-FU+the combination of thymidine derivative and uridine derivative. […] adding a solution of 5-FU and a solution of thymidine derivative (the final concentrations of 5-FU and thymidine derivative are shown in Table 3, the solution of thymidine is an aqueous solution, while the solutions of thymidine derivatives are all DMSO solutions); Group of 5-FU+the combination of thymidine derivative and uridine derivative: adding a solution of 5-FU and a mixed solution of thymidine derivative and uridine derivative (the final concentrations of the solution of 5-FU and the mixed solution of thymidine derivative+uridine derivative are shown in Table 3, the solution of thymidine is an aqueous solution, while the mixed solutions of thymidine derivative+uridine derivative are all DMSO solutions); Group of blank solvent control: adding the same type of solution as those of the corresponding Group of 5-FU or Group of 5-FU+thymidine derivative (or the mixed solution of thymidine derivative+uridine derivative) in equal volume. Group of blank solvent control was used as control to exclude the influence of the solvents in Group of 5-FU and Group of 5-FU+thymidine derivative (or the mixed solution of thymidine derivative+uridine derivative) on the results. After additional 48 hours of culture, a Cell Counting Kit-8 (CCK-8) detection kit (C0037, purchased from Shanghai Beyotime Biotechnology) is used to determine the cell survival rate, thereby calculating the proliferative toxicity of 5-Fu/5-DFUR on cells and the relieving effect of the thymidine derivative (or the mixed solution of thymidine derivative+uridine derivative) on the proliferative toxicity. Using GraphPad Prism 6.0 software, the results were statistically analyzed by t-test and plotted.
(§1) Table 3 lists the combinations of 5-FU and thymidine derivative (or the mixed solution of thymidine derivative+uridine derivative), and the corresponding experimental results (wherein the data in the column of cell survival indicate the corresponding increased percentage of the cell survivals of Group of 5-FU+thymidine derivative or Group of 5-FU+the combination of thymidine derivative and uridine derivative compared with the Group of 5-FU). FIGS. 3-10 list the experimental results of several representative compounds.
The effect of thymidine derivative or a combination of thymidine derivative and uridine derivative on relieving the proliferative toxicity of a chemotherapeutical drug (5-FU) to HaCaT cells was tested according to the method in Examples 2-29. The test thymidine derivative or the combination of thymidine derivative and uridine derivative, as well as the final concentration of the test compounds were shown in Table 7.
as §1, with “7” for “3”, “15-21” for “3-10”, “exemplary” for “representative”

[1] = Homo sapiens, HaCaT, increase vs Group of 5-FU, 5-FU 20 μM, 48 h, read-out: Cell Survival Rate
[2] = selected compound final concentration 0.8 μM
[3] = selected compound final concentration 1.6 μM
[4] = selected compound final concentration 3.13 μM
[5] = selected compound final concentration 6.25 μM
[6] = selected compound final concentration 12.5 μM
[7] = selected compound final concentration 25 μM
[8] = selected compound final concentration 50 μM

Cc1cn([C@H]2C[C@H](O)[C@@H](COC(=O)OC3CC3)O2)c(=O)[nH]c1=O [T11]
activation at 1 µM [1]: -5 to 0%
activation at 5 µM (Homo sapiens, HaCaT, increase vs Group of 5-FU, 5-FU 20 μM, compound 5 μM, 48 h, read-out: Cell Survival Rate): 11 to 16%
activation at 10 µM [1]: 27 to 33%
activation at 50 µM (Homo sapiens, HaCaT, increase vs Group of 5-FU, 5-FU 20 μM, compound 50 μM, 48 h, read-out: Cell Survival Rate): 35 to 45%
activation at 100 µM [1]: 38 to 45%
activation at 200 µM (Homo sapiens, HaCaT, increase vs Group of 5-FU, 5-FU 20 μM, compound 200 μM, 48 h, read-out: Cell Survival Rate): 38 to 46%
activation at 500 µM (Homo sapiens, HaCaT, increase vs Group of 5-FU, 5-FU 20 μM, compound 500 μM, 48 h, read-out: Cell Survival Rate): 40 to 50%
activation at 1000 µM (Homo sapiens, HaCaT, increase vs Group of 5-FU, 5-FU 20 μM, compound 1000 μM, 48 h, read-out: Cell Survival Rate): 7 to 14%

Cc1cn([C@H]2C[C@H](OC(=O)OC(C)(C)C)[C@@H](COC(=O)OC(C)(C)C)O2)c(=O)[nH]c1=O [T23]
activation at 1 µM [1]: 2 to 7%
activation at 10 µM [1]: 5 to 11%
activation at 100 µM [1]: 20 to 26%

Cc1cn([C@H]2C[C@H](O)[C@@H](COC(=O)[C@@H](C)c3ccc(CC(C)C)cc3)O2)c(=O)[nH]c1=O [T31]
Cell Survival Rate (increased percentage of cell survival compared with the Group of 5-FU) [2]: 23%-30%
Cell Survival Rate (increased percentage of cell survival compared with the Group of 5-FU) [3]: 29%-38%
Cell Survival Rate (increased percentage of cell survival compared with the Group of 5-FU) [4]: 37%-43%
Cell Survival Rate (increased percentage of cell survival compared with the Group of 5-FU) [5]: 41%-47%
Cell Survival Rate (increased percentage of cell survival compared with the Group of 5-FU) [6]: 44%-51%

Cc1cn([C@H]2C[C@H](OC(=O)Nc3ccccc3)[C@@H](COC(=O)Nc3ccccc3)O2)c(=O)[nH]c1=O [T16]
activation at 1 µM [1]: 0 to 5%
activation at 10 µM [1]: 7 to 14%

Cc1cn([C@H]2C[C@H](OC(=O)Oc3ccccc3)[C@@H](COC(=O)Oc3ccccc3)O2)c(=O)[nH]c1=O [T14]
activation at 1 µM [1]: 12 to 20%
activation at 10 µM [1]: 30 to 40%
activation at 100 µM [1]: 8 to 15%

COc1ccc2cc([C@H](C)C(=O)O[C@H]3C[C@H](n4cc(C)c(=O)[nH]c4=O)O[C@@H]3CO)ccc2c1 [T42]
Cell Survival Rate (increased percentage of cell survival compared with the Group of 5-FU) [2]: 38%-45%
Cell Survival Rate (increased percentage of cell survival compared with the Group of 5-FU) [3]: 59%-67%
Cell Survival Rate (increased percentage of cell survival compared with the Group of 5-FU) [4]: 85%-93%
Cell Survival Rate (increased percentage of cell survival compared with the Group of 5-FU) [5]: 85%-92%
Cell Survival Rate (increased percentage of cell survival compared with the Group of 5-FU) [6]: 58%-66%
Cell Survival Rate (increased percentage of cell survival compared with the Group of 5-FU) [7]: 68%-75%
Cell Survival Rate (increased percentage of cell survival compared with the Group of 5-FU) [8]: 66%-74%

Cc1cn([C@H]2C[C@H](O)[C@@H](COC(=O)C3CCn4c(C(=O)c5ccccc5)ccc43)O2)c(=O)[nH]c1=O (stereo partly drawn) [T34]
Cell Survival Rate (increased percentage of cell survival compared with the Group of 5-FU) [6]: 28%-35%
Cell Survival Rate (increased percentage of cell survival compared with the Group of 5-FU) [7]: 43%-51%
Cell Survival Rate (increased percentage of cell survival compared with the Group of 5-FU) [8]: 69%-77%
Cell Survival Rate (increased percentage of cell survival compared with the Group of 5-FU) (selected compound final concentration 100 μM): 67%-74%

Cc1cn([C@H]2C[C@H](OC(=O)[C@@H](C)c3ccc(CC(C)C)cc3)[C@@H](CO)O2)c(=O)[nH]c1=O [T44]
Cell Survival Rate (increased percentage of cell survival compared with the Group of 5-FU) [5]: 13%-20%
Cell Survival Rate (increased percentage of cell survival compared with the Group of 5-FU) [6]: 27%-35%
Cell Survival Rate (increased percentage of cell survival compared with the Group of 5-FU) [7]: 53%-60%
Cell Survival Rate (increased percentage of cell survival compared with the Group of 5-FU) [8]: 69%-76%

Cc1cn([C@H]2C[C@H](OC(=O)OC(C)C)[C@@H](COC(=O)OC(C)C)O2)c(=O)[nH]c1=O [T22]
activation at 1 µM [1]: 2 to 7%
activation at 10 µM [1]: 10 to 17%
activation at 100 µM [1]: 9 to 16%

Cc1cn([C@H]2C[C@H](O)[C@@H](COC(=O)C(C)c3ccc(CC(C)C)cc3)O2)c(=O)[nH]c1=O (stereo partly drawn) [T30]
Cell Survival Rate (increased percentage of cell survival compared with the Group of 5-FU) [4]: 39%-47%
Cell Survival Rate (increased percentage of cell survival compared with the Group of 5-FU) [5]: 45%-53%
Cell Survival Rate (increased percentage of cell survival compared with the Group of 5-FU) [6]: 54%-61%
Cell Survival Rate (increased percentage of cell survival compared with the Group of 5-FU) [7]: 44%-51%
Cell Survival Rate (increased percentage of cell survival compared with the Group of 5-FU) [8]: 39%-46%

Cc1cn([C@H]2C[C@H](O)[C@@H](COC(=O)[C@H](C)c3ccc(-c4ccccc4)c(F)c3)O2)c(=O)[nH]c1=O [T29]
Cell Survival Rate (increased percentage of cell survival compared with the Group of 5-FU) [2]: 19%-25%
Cell Survival Rate (increased percentage of cell survival compared with the Group of 5-FU) [3]: 19%-27%
Cell Survival Rate (increased percentage of cell survival compared with the Group of 5-FU) [4]: 35%-42%
Cell Survival Rate (increased percentage of cell survival compared with the Group of 5-FU) [5]: 43%-50%
Cell Survival Rate (increased percentage of cell survival compared with the Group of 5-FU) [6]: 69%-76%
Cell Survival Rate (increased percentage of cell survival compared with the Group of 5-FU) [7]: 54%-62%
Cell Survival Rate (increased percentage of cell survival compared with the Group of 5-FU) [8]: 48%-54%
